Entries after “also recorded” stand apart in the source; their conditions may differ.
How the values were obtained:
[1] = Cytotoxicity by methylene blue viability assay; settings: human
[2] = test system: SARS-CoV-2 B.1 lineage isolate; experiment: in vitro; settings: human
[3] = test system: SARS-CoV-2 B.1 lineage isolate; experiment: microbe, parasite or virus in culture; settings: Severe acute respiratory syndrome coronavirus 2, Calu-3, 24 h
SARS-CoV-2 Mpro = SARS-CoV-2 Mpro (Severe acute respiratory syndrome coronavirus 2, UniProt P0DTD1); experiment: biochemical; settings: enzyme 1.5 μM, substrate 50 μM; for IC50 / IC50 (µM): FRET, 15 min preincubation at 37 °C; for Emax: read-out: Maximum inhibition (%), efficacy compared to negative control (vehicle, DMSO)
in vitro = settings: human
[4] = test system: SARS-CoV-2 B.1 lineage isolate
Calu-3 cells = experiment: Cytotoxicity by methylene blue viability assay; settings: Calu-3 cells
SARS-CoV-2 = settings: comparator values quoted in text; cited from earlier work

`COC(=O)[C@H](Cc1ccccc1)NC(=O)C[C@H](O)[C@H](Cc1ccccc1)NC(=O)OC(C)(C)C` gave a melting point of 79 to 80 °C.
In the case of `COC(=O)[C@@H]1CCCN1C(=O)C[C@H](OC(C)=O)[C@H](Cc1ccccc1)NC(=O)OC(C)(C)C`, the melting point is reported as 90 to 92 °C.
For `COC(=O)N[C@H](C(=O)N[C@@H](Cc1ccccc1)[C@@H](O)CN(Cc1ccc(-c2ccccn2)cc1)NC(=O)[C@@H](NC(=O)OC)C(C)(C)C)C(C)(C)C` [ATV, atazanavir, reference compound], the CC50 at 72 h [1] was over 200 µM, the selectivity ratio [2] was over 131 and the EC50 [3] was 1530 ± 300 nM.
Work on `COC(=O)[C@H](CO)NC(=O)C[C@H](O)[C@H](Cc1ccccc1)NC(=O)OC(C)(C)C` [Compound 7a] yielded an IC50 (SARS-CoV-2 Mpro) of over 1000 µM and an Emax (SARS-CoV-2 Mpro; compounds 0.001 to 1000 μM) of 70%.
Work on `COC(=O)[C@H](Cc1ccc(O)cc1)NC(=O)C[C@H](O)[C@H](Cc1ccccc1)NC(=O)OC(C)(C)C` [Compound 7b] yielded an IC50 (SARS-CoV-2 Mpro) of over 1000 µM, an Emax (SARS-CoV-2 Mpro; compounds 0.001 to 1000 μM) of 70% and a melting point of 60 to 62 °C.
`COC(=O)[C@@H](NC(=O)C[C@H](O)[C@H](Cc1ccccc1)NC(=O)OC(C)(C)C)[C@H](C)O` [Compound 7c] showed an Emax (SARS-CoV-2 Mpro; compounds 0.001 to 1000 μM) of under 50% and a melting point of 124 to 125 °C.
In the case of `COC(=O)[C@@H](O)CNC(=O)C[C@H](O)[C@H](Cc1ccccc1)NC(=O)OC(C)(C)C` [Compound 7d], the IC50 (SARS-CoV-2 Mpro) is reported as 0.924 µM, the “IC50 (µM)” value (SARS-CoV-2 Mpro) is reported as “sub-micromolar range” and the Emax (SARS-CoV-2 Mpro; compounds 0.001 to 1000 μM) is reported as over 70%. For the same compound, the selectivity ratio [2] was over 114, the CC50 at 72 h (in vitro) was over 200 µM and the melting point was 65 to 66 °C. The “Inhibition of SARS-CoV-2 replication” value [4] was “roughly 80%” and the EC50 [3] was 1760 ± 300 nM.
With `COC(=O)[C@H](CC(C)C)NC(=O)C[C@H](O)[C@H](Cc1ccccc1)NC(=O)OC(C)(C)C` [Compound 7e] the Emax (SARS-CoV-2 Mpro; compounds 0.001 to 1000 μM) was under 50%.
In the case of `COC(=O)[C@@H](NC(=O)CC(O)C(Cc1ccccc1)NC(=O)OC(C)(C)C)C(C)C` (some centres unmarked) [Compound 7h], the “Maximum inhibition (%)” value (SARS-CoV-2 Mpro; efficacy compared to negative control (vehicle, DMSO), compounds 0.001 to 1000 μM) is reported as under 50%.
`COC(=O)[C@H](COC(C)=O)NC(=O)C[C@H](OC(C)=O)[C@H](Cc1ccccc1)NC(=O)OC(C)(C)C` [Compound 8a] gave an IC50 (SARS-CoV-2 Mpro) of 1000 µM, an Emax (SARS-CoV-2 Mpro; compounds 0.001 to 1000 μM) of 50% and a melting point of 97 to 98 °C.
In the case of `COC(=O)[C@H](Cc1ccc(OC(C)=O)cc1)NC(=O)C[C@H](OC(C)=O)[C@H](Cc1ccccc1)NC(=O)OC(C)(C)C` [Compound 8b], the IC50 (SARS-CoV-2 Mpro) is reported as over 1000 µM, the Emax (SARS-CoV-2 Mpro; compounds 0.001 to 1000 μM) is reported as 65% and the melting point is reported as 88 to 89 °C.
`COC(=O)[C@@H](NC(=O)C[C@H](OC(C)=O)[C@H](Cc1ccccc1)NC(=O)OC(C)(C)C)[C@H](C)OC(C)=O` [Compound 8c] gave an IC50 (SARS-CoV-2 Mpro) of 2.45 µM, an Emax (SARS-CoV-2 Mpro; compounds 0.001 to 1000 μM) of at least 60% and a melting point of 54 to 55 °C.
`COC(=O)[C@H](CC(C)C)NC(=O)C[C@H](OC(C)=O)[C@H](Cc1ccccc1)NC(=O)OC(C)(C)C` [Compound 8d] showed an IC50 (SARS-CoV-2 Mpro) of 0.391 µM, an Emax (SARS-CoV-2 Mpro; compounds 0.001 to 1000 μM) of at least 60% and a melting point of 94 to 95 °C.
For `COC(=O)[C@H](Cc1ccccc1)NC(=O)C[C@H](OC(C)=O)[C@H](Cc1ccccc1)NC(=O)OC(C)(C)C` [Compound 8e], the IC50 (SARS-CoV-2 Mpro) was 0.606 µM, the “IC50 (µM)” value (SARS-CoV-2 Mpro) was “sub-micromolar range” and the Emax (SARS-CoV-2 Mpro; compounds 0.001 to 1000 μM) was over 70%. It also gave a selectivity ratio [2] of over 112, a CC50 at 72 h (in vitro) of over 200 µM and a melting point of 89 to 91 °C. For the same compound, the “Inhibition of SARS-CoV-2 replication” value [4] was “roughly 80%” and the EC50 [3] was 1790 ± 100 nM.
In the case of `COC(=O)[C@@H](NC(=O)C[C@H](OC(C)=O)[C@H](Cc1ccccc1)NC(=O)OC(C)(C)C)C(C)C` [Compound 8g], the IC50 (SARS-CoV-2 Mpro) is reported as over 1000 µM and the Emax (SARS-CoV-2 Mpro; compounds 0.001 to 1000 μM) is reported as 66%.
For `COC(=O)[C@H](CO)NC(=O)C[C@H](O)[C@@H](N)Cc1ccccc1.O=C(O)C(F)(F)F` [Compound 9a], the IC50 (SARS-CoV-2 Mpro) was over 1000 µM, the Emax (SARS-CoV-2 Mpro; compounds 0.001 to 1000 μM) was 57% and the melting point was 120 to 121 °C.
Work on `COC(=O)[C@H](Cc1ccc(O)cc1)NC(=O)C[C@H](O)[C@@H](N)Cc1ccccc1.O=C(O)C(F)(F)F` [Compound 9b] yielded an IC50 (SARS-CoV-2 Mpro) of over 1000 µM, an Emax (SARS-CoV-2 Mpro; compounds 0.001 to 1000 μM) of 52% and a melting point of 98 to 99 °C.
Work on `COC(=O)[C@H](CC(C)C)NC(=O)C[C@H](O)[C@@H](N)Cc1ccccc1.O=C(O)C(F)(F)F` [Compound 9d] yielded an IC50 (SARS-CoV-2 Mpro) of 778 µM, an Emax (SARS-CoV-2 Mpro; compounds 0.001 to 1000 μM) of 58% and a melting point of 147 to 148 °C.
For `COC(=O)[C@H](Cc1ccccc1)NC(=O)C[C@H](O)[C@@H](N)Cc1ccccc1` [Compound 9e], the IC50 (SARS-CoV-2 Mpro) was over 1000 µM and the Emax (SARS-CoV-2 Mpro; compounds 0.001 to 1000 μM) was 51%.
With `COC(=O)[C@@H]1CCCN1C(=O)C[C@H](O)[C@@H](N)Cc1ccccc1` [Compound 9f] the IC50 (SARS-CoV-2 Mpro) was over 1000 µM and the Emax (SARS-CoV-2 Mpro; compounds 0.001 to 1000 μM) was 68%.
With `COC(=O)[C@@H](NC(=O)C[C@H](O)[C@@H](N)Cc1ccccc1)C(C)C.O=C(O)C(F)(F)F` [Compound 9g] the CC50 at 72 h [1] was over 200 µM, the “Cytotoxicity (in words)” value (Calu-3 cells) was “no cytotoxicity; also recorded: non-cytotoxic” and the IC50 (SARS-CoV-2 Mpro) was 0.617 µM. For the same compound, the “IC50 (µM)” value (SARS-CoV-2 Mpro) was “sub-micromolar range”, the Emax (SARS-CoV-2 Mpro; compounds 0.001 to 1000 μM) was over 70% and the selectivity ratio [2] was over 132. The “Inhibition of SARS-CoV-2 replication” value [4] was “roughly 80%” and the EC50 [3] was 1510 ± 200 nM.
Work on `CC(C)(C)OC(=O)N[C@@H](Cc1ccccc1)[C@@H](O)CC(=O)N[C@@H](Cc1ccccc1)C(=O)NN` [Compound 10] yielded an IC50 (SARS-CoV-2 Mpro) of over 1000 µM and an Emax (SARS-CoV-2 Mpro; compounds 0.001 to 1000 μM) of 61%.
For `CC(C)C(=O)OC[C@H]1O[C@@H](n2ccc(NO)nc2=O)[C@H](O)[C@@H]1O` [molnupiravir], the EC50 (SARS-CoV-2) is given as 1970 nM.

Reference: publication PMC11026380, “Statine-based peptidomimetic compounds as inhibitors for SARS-CoV-2 main protease (SARS-CoV‑2 Mpro)” (Scientific Reports, 2024)
